Measurements as given in patent publication US10144732B2 (BIOGEN MA INC., priority 2014, dated 2018).
Structures can show the parent of a compound that is named as a salt.

biological target: T1, Human ATX protein (Homo sapiens, UniProt Q13822); assay: ATX biochemical assay (FRET, FS-3 substrate); details: FRET assay, FS-3 2 μM, ATX 1.0 μg/mL, 30 minutes preincubation, 2 hours reaction at room temperature; read-out: IC50
T1 construct: made in house
Procedure, shortened: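 In-house human ATX (1.0 μg/mL final) was preincubated with compound for 30 min at room temperature in Tris buffer pH 7.4 with 1 mg/mL fatty acid free-BSA. FS-3 substrate (2 μM final) was then hydrolysed for 2 hours at room temperature, protected from light, and read as fluorescence at ex 485/em 538 nm.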

IC50, ≤ 100 nM:
CCOC(=O)C1CCCN(CC(=O)N2CCc3c(C(F)(F)F)nn(Cc4ccc(Cl)cc4F)c3C2)C1 (stereo not shown) [Example 12-3, Ethyl 1-(2-(1-(4-chloro-2-fluorobenzyl)-3-(trifluoromethyl)-4,5-dihydro-1H-pyrazolo[3,4-c]pyridin-6(7H)-yl)-2-oxoethyl)piperidine-3-carboxylate]
O=C(O)C1CC2CN(CC(=O)N3CCc4c(C(F)(F)F)nn(Cc5ccc(F)cc5)c4C3)CC2C1 (stereo not shown) [Example 13-10, 2-(2-(1-(4-Fluorobenzyl)-3-(trifluoromethyl)-4,5-dihydro-1H-pyrazolo[3,4-c]pyridin-6(7H)-yl)-2-oxoethyl)octahydrocyclopenta[c]pyrrole-5-carboxylic acid TFA salt]
O=C(C[C@H]1CC[C@@H](C(=O)O)CC1)N1CCc2c(C(F)(F)F)nn(Cc3ccc(F)cc3F)c2C1 [Example 5-34, cis-4-(2-(1-(2,4-Difluorobenzyl)-3-(trifluoromethyl)-4,5-dihydro-1H-pyrazolo[3,4-c]pyridin-6(7H)-yl)-2-oxoethyl)cyclohexanecarboxylic acid]
CCOC(=O)[C@H]1CC[C@H](CC(=O)N2CCc3c(C(F)(F)F)nn(Cc4cccs4)c3C2)CC1 [Example 1-46, trans-Ethyl-4-(2-oxo-2-(1-(thiophen-2-ylmethyl)-3-(trifluoromethyl)-4,5-dihydro-1H-pyrazolo[3,4-c]pyridin-6(7H)-yl)ethyl)cyclohexanecarboxylate]
CC(C)(C)OC(=O)N1CCCC(CC(=O)N2CCc3c(C(F)(F)F)nn(Cc4ccc(F)cc4)c3C2)C1 (stereo not shown) [Example 8-4, tert-Butyl 3-(2-(1-(4-fluorobenzyl)-3-(trifluoromethyl)-4,5-dihydro-1H-pyrazolo[3,4-c]pyridin-6(7H)-yl)-2-oxoethyl)piperidine-1-carboxylate]
O=C(C[C@H]1CC[C@H](C(=O)O)CC1)N1CCc2c(-c3cccnc3)nn(Cc3ccc(F)cc3)c2C1 [Example 5-40, trans-4-(2-(1-(4-Fluorobenzyl)-3-(pyridin-3-yl)-4,5-dihydro-1H-pyrazolo[3,4-c]pyridin-6(7H)-yl)-2-oxoethyl)cyclohexanecarboxylic acid]
O=C(C[C@H]1CC[C@H](C(=O)O)CC1)N1CCc2c(C(F)(F)F)nn(Cc3ccc(F)cc3)c2C1 [Example 7-1, trans-4-(2-(1-(4-Fluorobenzyl)-3-(trifluoromethyl)-4,5-dihydro-1H-pyrazolo[3,4-c]pyridin-6(7H)-yl)-2-oxoethyl)cyclohexanecarboxylic acid]
O=C(C[C@H]1CC[C@H](C(=O)O)CC1)N1CCc2c(C(F)(F)F)nn(Cc3ccc(Cl)cc3Cl)c2C1 [Example 7-7, trans-4-(2-(1-(2,4-Dichlorobenzyl)-3-(trifluoromethyl)-4,5-dihydro-1H-pyrazolo[3,4-c]pyridin-6(7H)-yl)-2-oxoethyl)cyclohexanecarboxylic acid]
O=C(CC12CCC(C(=O)O)(CC1)CC2)N1CCc2c(C(F)(F)F)nn(Cc3ccc(F)cc3)c2C1 [Example 5-13, 4-(2-(1-(4-Fluorobenzyl)-3-(trifluoromethyl)-4,5-dihydro-1H-pyrazolo[3,4-c]pyridin-6(7H)-yl)-2-oxoethyl)bicyclo[2.2.2]octane-1-carboxylic acid]
N[C@H]1CC[C@H](CC(=O)N2CCc3c(C(F)(F)F)nn(Cc4ccc(F)cc4)c3C2)CC1 [Example 9-20, 2-(trans-4-Aminocyclohexyl)-1-(1-(4-fluorobenzyl)-3-(trifluoromethyl)-4,5-dihydro-1H-pyrazolo[3,4-c]pyridin-6(7H)-yl)ethanone TFA salt]
O=C(CN[C@H]1C[C@@H](C(=O)O)C1)N1CCc2c(C(F)(F)F)nn(Cc3ccc(F)cc3)c2C1 [Example 13-28, cis-3-(2-(1-(4-Fluorobenzyl)-3-(trifluoromethyl)-4,5-dihydro-1H-pyrazolo[3,4-c]pyridin-6(7H)-yl)-2-oxoethylamino)cyclobutanecarboxylic acid TFA salt]
CC1(C)C(NCC(=O)N2CCc3c(C(F)(F)F)nn(Cc4ccc(F)cc4)c3C2)CC1C(=O)O (stereo not shown) [Example 13-14, 3-((2-(1-(4-Fluorobenzyl)-3-(trifluoromethyl)-4,5-dihydro-1H-pyrazolo[3,4-c]pyridin-6(7H)-yl)-2-oxoethyl)amino)-2,2-dimethylcyclobutanecarboxylic acid TFA salt]
CCOC(=O)C1CCC(CC(=O)N2CCc3c(C(F)(F)F)nn(Cc4ccccc4F)c3C2)CC1 (stereo not shown) [Example 1-19, Ethyl 4-(2-(1-(2-fluorobenzyl)-3-(trifluoromethyl)-4,5-dihydro-1H-pyrazolo[3,4-c]pyridin-6(7H)-yl)-2-oxoethyl)cyclohexanecarboxylate]
NC(=O)[C@H]1CC[C@H](CC(=O)N2CCc3c(C(F)(F)F)nn(Cc4ccc(F)cc4)c3C2)CC1 [Example 20-2, trans-4-(2-(1-(4-Fluorobenzyl)-3-(trifluoromethyl)-4,5-dihydro-1H-pyrazolo[3,4-c]pyridin-6(7H)-yl)-2-oxoethyl)cyclohexanecarboxamide]
CC(C)(C)OC(=O)N1CC(CC(=O)N2CCc3c(C(F)(F)F)nn(Cc4ccc(Cl)cc4F)c3C2)C1 [Example 8-3, tert-Butyl 3-(2-(1-(4-chloro-2-fluorobenzyl)-3-(trifluoromethyl)-4,5-dihydro-1H-pyrazolo[3,4-c]pyridin-6(7H)-yl)-2-oxoethyl)azetidine-1-carboxylate]
N#C[C@H]1CC[C@H](CC(=O)N2CCc3c(C(F)(F)F)nn(Cc4ccc(F)cc4)c3C2)CC1 [Example 21-2, trans-4-(2-(1-(4-Fluorobenzyl)-3-(trifluoromethyl)-4,5-dihydro-1H-pyrazolo[3,4-c]pyridin-6(7H)-yl)-2-oxoethyl)cyclohexanecarbonitrile]
CN1CCC(CC(=O)N2CCc3c(C(F)(F)F)nn(Cc4ccc(Cl)cc4F)c3C2)CC1C(F)(F)F (stereo not shown) [Example 10-4, 1-(1-(4-Chloro-2-fluorobenzyl)-3-(trifluoromethyl)-4,5-dihydro-1H-pyrazolo[3,4-c]pyridin-6(7H)-yl)-2-(1-methyl-2-(trifluoromethyl)piperidin-4-yl)ethanone TFA salt]
O=C(CN1CCC(C(F)(F)F)CC1)N1CCc2c(C(F)(F)F)nn(Cc3ccc(F)cc3)c2C1 [Example 12-15, 1-(1-(4-Fluorobenzyl)-3-(trifluoromethyl)-4,5-dihydro-1H-pyrazolo[3,4-c]pyridin-6(7H)-yl)-2-(4-(trifluoromethyl)piperidin-1-yl)ethanone]
O=C(C[C@H]1CC[C@@H](C(=O)O)CC1)N1CCc2c(C(F)(F)F)nn(Cc3ccc(Cl)cc3F)c2C1 [Example 5-2, cis-4-(2-(1-(4-Chloro-2-fluorobenzyl)-3-(trifluoromethyl)-4,5-dihydro-1H-pyrazolo[3,4-c]pyridin-6(7H)-yl)-2-oxoethyl)cyclohexanecarboxylic acid]
CC(c1ccc(F)cc1)n1nc(C(F)(F)F)c2c1CN(C(=O)C[C@H]1CC[C@@H](C(=O)O)CC1)CC2 (stereo partly drawn) [Example 5-20, cis-4-(2-(1-(1-(4-Fluorophenyl)ethyl)-3-(trifluoromethyl)-4,5-dihydro-1H-pyrazolo[3,4-c]pyridin-6(7H)-yl)-2-oxoethyl)cyclohexanecarboxylic acid]
O=C(CC1CNCCO1)N1CCc2c(C(F)(F)F)nn(Cc3ccc(Cl)cc3F)c2C1 (stereo not shown) [Example 9-15, 1-(1-(4-Chloro-2-fluorobenzyl)-3-(trifluoromethyl)-4,5-dihydro-1H-pyrazolo[3,4-c]pyridin-6(7H)-yl)-2-(morpholin-2-yl)ethanone TFA salt]
C[C@]1(C(=O)O)C[C@@H](CC(=O)N2CCc3c(C(F)(F)F)nn(Cc4ccc(F)cc4)c3C2)C1 [Example 7-23, cis-3-(2-(1-(4-Fluorobenzyl)-3-(trifluoromethyl)-4,5-dihydro-1H-pyrazolo[3,4-c]pyridin-6(7H)-yl)-2-oxoethyl)-1-methylcyclobutanecarboxylic acid]
